Patent publication US12655116B2, “Substituted isophthalic acid diamides” (Bayer Aktiengesellschaft, priority 2020, dated 2026)
Several values for one entry are separate records, joined by “and”; a condition that tells them apart may be missing. Equal entries are not always repeated.

Assays:
POLCO = experiment: Pre-emergence herbicidal action against POLCO; assay type: in vivo, Polygonum convolvulus; conditions: Fallopia convolvulus, 504 h
Procedure, shortened: (§1)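 Greenhouse pots of sandy loam held seeds covered with soil, onto which the compound was applied before emergence. An aqueous suspension or emulsion of WP or EC was used at 600 to 800 l/ha with 0.2% wetting agent. Percent damage was judged visually at 3 weeks.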

PHBPU [1] = experiment: Post-emergence herbicidal action against PHBPU; assay type: in vivo, Pharbitis purpurea; conditions: Ipomoea purpurea, 504 h
Procedure, shortened: (§2)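 Foliar application at one-leaf stage of formulated test compounds, aqueous spray at 600–800 l/ha with 0.2% wetting agent. Greenhouse, optimal conditions, ~3 weeks; damage scored visually in % relative to untreated plants.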

AMARE [2] = experiment: Pre-emergence herbicidal action against AMARE; assay type: in vivo, Amaranthus retroflexus
Procedure, shortened: as §1

VIOTR [3] = experiment: Post-emergence herbicidal action against VIOTR; assay type: in vivo, Viola tricolor; conditions: Viola tricolor, 504 h
Procedure, shortened: as §2

DIGSA [4] = experiment: Post-emergence herbicidal action against DIGSA; assay type: in vivo, Digitaria sanguinalis; conditions: Digitaria sanguinalis, 504 h
Procedure, shortened: as §2

SETVI [5] = experiment: Pre-emergence herbicidal action against SETVI; assay type: in vivo, Setaria viridis; conditions: Setaria viridis, 504 h; for pest or weed control at 80 g/ha: dosage 80 g/ha
Procedure, shortened: as §1

ALOMY [6] = experiment: Post-emergence herbicidal action against ALOMY; assay type: in vivo, Alopecurus myosuroides; conditions: Alopecurus myosuroides, 504 h, dosage 20 g/ha, visual assessment about 3 weeks after treatment vs untreated controls
Procedure, shortened: as §2

AVEFA = experiment: Pre-emergence herbicidal action against AVEFA; assay type: in vivo, Avena fatua; conditions: Avena fatua, 504 h; 80 g/ha, pre-emergence
Procedure, shortened: as §1

MATIN [7] = experiment: Post-emergence herbicidal action against MATIN; assay type: in vivo, Matricaria inodora; conditions: Tripleurospermum inodorum, 504 h
Procedure, shortened: as §2

ECHCG [8] = experiment: Pre-emergence herbicidal action against ECHCG; assay type: in vivo, Echinochloa crus-galli
Procedure, shortened: as §1

VERPE [9] = experiment: Post-emergence herbicidal action against VERPE; assay type: in vivo, Veronica persica; conditions: Veronica persica, 504 h, 20 g/ha
Procedure, shortened: as §2

SETVI [10] = experiment: Post-emergence herbicidal action against SETVI; assay type: in vivo, Setaria viridis
Procedure, shortened: as §2

PHBPU [11] = experiment: Pre-emergence herbicidal action against PHBPU; assay type: in vivo, Pharbitis purpurea; conditions: Ipomoea purpurea, 504 h, dosage 80 g/ha
Procedure, shortened: as §1

ECHCG [12] = experiment: Post-emergence herbicidal action against ECHCG; assay type: in vivo, Echinochloa crus-galli; conditions: Echinochloa crus-galli, 504 h, dosage 20 g/ha
Procedure, shortened: as §2

VIOTR [13] = experiment: Pre-emergence herbicidal action against VIOTR; assay type: in vivo, Viola tricolor
Procedure, shortened: as §1

ABUTH [14] = experiment: Pre-emergence herbicidal action against ABUTH; assay type: in vivo, Abutilon theophrasti
Procedure, shortened: as §1

ABUTH [15] = experiment: Post-emergence herbicidal action against ABUTH; assay type: in vivo, Abutilon theophrasti; conditions: visual assessment about 3 weeks after treatment vs untreated controls
Procedure, shortened: as §2

MATIN [16] = experiment: Pre-emergence herbicidal action against MATIN; assay type: in vivo, Matricaria inodora
Procedure, shortened: as §1

ALOMY [17] = experiment: Pre-emergence herbicidal action against ALOMY; assay type: in vivo, Alopecurus myosuroides; conditions: Alopecurus myosuroides, 504 h, pre-emergence
Procedure, shortened: as §1

DIGSA [18] = experiment: Pre-emergence herbicidal action against DIGSA; assay type: in vivo, Digitaria sanguinalis
Procedure, shortened: as §1

VERPE [19] = experiment: Pre-emergence herbicidal action against VERPE; assay type: in vivo, Veronica persica; conditions: Veronica persica, 504 h, dosage 80 g/ha
Procedure, shortened: as §1

AMARE [20] = experiment: Post-emergence herbicidal action against AMARE; assay type: in vivo, Amaranthus retroflexus; conditions: 20 g/ha, visual assessment about 3 weeks after treatment, 100% = plants have died, 0% = like control plants
Procedure, shortened: as §2

STEME = experiment: Pre-emergence herbicidal action against STEME; assay type: in vivo, Stellaria media
From the text: Seeds of monocotyledonous and dicotyledonous weed plants and crop plants are laid out in sandy loam soil in wood-fiber pots and covered with soil. The compounds of the invention, formulated in the form of wettable powders (WP) or as emulsion concentrates (EC), are then applied to the surface of the covering soil in the form of an aqueous suspension or emulsion at a water application rate equivalent to 600 to 800 l/ha, with addition of 0.2% wetting agent. After the treatment, the pots are placed in a greenhouse and kept under good growth conditions for the trial plants. The damage to the test plants is scored visually after a test period of 3 weeks by comparison with untreated controls (herbicidal activity in percent (%): 100% activity=the plants have died, 0% activity=like control plants). […] The tables below illustrate, in an illustrative manner, the post-emergence herbicidal action of the compounds of the invention, the herbicidal activity being stated in percent.

[21] = Amaranthus retroflexus, 504 h, 20 g/ha, scored visually after 3 weeks vs untreated controls, 100% = plants have died, 0% = like control plants
[22] = Amaranthus retroflexus, 504 h, 80 g/ha, scored visually after 3 weeks vs untreated controls, 100% = plants have died, 0% = like control plants
[23] = Abutilon theophrasti, 504 h, 80 g/ha, scored visually after 3 weeks vs untreated controls (100% = plants have died, 0% = like control plants)
[24] = Abutilon theophrasti, 504 h, dosage 20 g/ha
[25] = 80 g/ha, scored visually after 3 weeks vs untreated controls (100% = plants have died, 0% = like control plants)
[26] = Digitaria sanguinalis, 504 h, dosage 80 g/ha

## CCNC(=O)c1c(C(F)F)ccc(C(=O)Nc2nnnn2CC)c1CC [Example 2-278]
POLCO; dosage 20 g/ha
  pest or weed control at 20 g/ha: 80%
POLCO; dosage 80 g/ha
  pest or weed control at 80 g/ha: 80%
PHBPU [1]; dosage 5 g/ha
  pest or weed control at 5 g/ha: 80%
PHBPU [1]; dosage 20 g/ha
  pest or weed control at 20 g/ha: 90%
AMARE [2]; [21]
  pest or weed control at 20 g/ha: 100%
AMARE [2]; [22]
  pest or weed control at 80 g/ha: 100%
VIOTR [3]; 5 g/ha
  pest or weed control at 5 g/ha: 90%
VIOTR [3]; 20 g/ha
  pest or weed control at 20 g/ha: 90%
DIGSA [4]; 5 g/ha
  pest or weed control at 5 g/ha: 90%
DIGSA [4]; 20 g/ha
  pest or weed control at 20 g/ha: 90%
SETVI [5]
  pest or weed control at 80 g/ha: 100%
ALOMY [6]
  pest or weed control at 20 g/ha: 80%
AVEFA
  pest or weed control at 80 g/ha: 90%
MATIN [7]; dosage 5 g/ha
  pest or weed control at 5 g/ha: 90%
MATIN [7]; dosage 20 g/ha
  pest or weed control at 20 g/ha: 90%
ECHCG [8]; Echinochloa crus-galli, 504 h, 80 g/ha
  pest or weed control at 80 g/ha: 100%
VERPE [9]
  pest or weed control at 20 g/ha: 100%
SETVI [10]; Setaria viridis, 504 h, dosage 5 g/ha
  pest or weed control at 5 g/ha: 80%
SETVI [10]; Setaria viridis, 504 h, dosage 20 g/ha
  pest or weed control at 20 g/ha: 90%
PHBPU [11]
  pest or weed control at 80 g/ha: 90%
ECHCG [12]
  pest or weed control at 20 g/ha: 90%
VIOTR [13]; Viola tricolor, 504 h, dosage 20 g/ha
  pest or weed control at 20 g/ha: 100%
VIOTR [13]; Viola tricolor, 504 h, dosage 80 g/ha
  pest or weed control at 80 g/ha: 100%
ABUTH [14]; [23]
  pest or weed control at 80 g/ha: 100%
ABUTH [14]; Abutilon theophrasti, 504 h, dosage 20 g/ha, scored visually after 3 weeks vs untreated controls, 100% = plants have died, 0% = like control plants, read-out: Pre-emergence action against ABUTH (herbicidal activity in percent)
  pest or weed control at 20 g/ha: 100%
ABUTH [15]; Abutilon theophrasti, 504 h, dosage 5 g/ha
  pest or weed control at 5 g/ha: 80%
ABUTH [15]; [24]
  pest or weed control at 20 g/ha: 90%
MATIN [16]; Tripleurospermum inodorum, 504 h, dosage 20 g/ha
  pest or weed control at 20 g/ha: 100%
MATIN [16]; Tripleurospermum inodorum, 504 h, dosage 80 g/ha
  pest or weed control at 80 g/ha: 100%
ALOMY [17]; [25]
  pest or weed control at 80 g/ha: 90%
ALOMY [17]; 20 g/ha, scored visually after 3 weeks, 100% = plants have died, 0% = like control plants
  pest or weed control at 20 g/ha: 80%
DIGSA [18]; Digitaria sanguinalis, 504 h, dosage 20 g/ha
  pest or weed control at 20 g/ha: 100%
DIGSA [18]; [26]
  pest or weed control at 80 g/ha: 100%
VERPE [19]
  pest or weed control at 80 g/ha: 100%
AMARE [20]; Amaranthus retroflexus, 504 h
  pest or weed control at 20 g/ha: 100%

## CCc1c(C(=O)Nc2ncnn2C)ccc(C(F)(F)F)c1C(=O)NC1CC1 [Example 4-212]
AMARE [2]; 20 g/ha, scored visually after 3 weeks vs untreated controls, 100% = plants have died, 0% = like control plants
  Pre-emergence action against AMARE in %: 90%
AMARE [2]; [25]
  Pre-emergence action against AMARE in %: 90%
ECHCG [8]; 80 g/ha
  Pre-emergence action against ECHCG in %: 80%
SETVI [10]; dosage 20 g/ha
  Post-emergence action against SETVI in %: 80%
STEME; dosage 80 g/ha
  Pre-emergence action against STEME in %: 90%
VIOTR [13]; dosage 80 g/ha
  Pre-emergence action against VIOTR in %: 90%
ABUTH [14]; [25]
  Pre-emergence action against ABUTH (herbicidal activity): 90%
ABUTH [15]; dosage 20 g/ha
  Post-emergence action against ABUTH in %: 80%
MATIN [16]; dosage 20 g/ha
  Pre-emergence action against MATIN in %: 80%
MATIN [16]; dosage 80 g/ha
  Pre-emergence action against MATIN in %: 80% and 90%
DIGSA [18]; dosage 20 g/ha
  Pre-emergence action against DIGSA in %: 80%
DIGSA [18]; dosage 80 g/ha
  Pre-emergence action against DIGSA in %: 90%
AMARE [20]
  Post-emergence action at 20 g/ha against AMARE in %: 80%

## CC(=O)NC(=O)c1c(C(F)(F)F)ccc(C(=O)Nc2nnc(C)o2)c1Cl [Example 6-252]
AMARE [2]; [21]
  pest or weed control at 20 g/ha: 80%
AMARE [2]; [22]
  pest or weed control at 80 g/ha: 90%
AMARE [2]; Amaranthus retroflexus, 504 h, 320 g/ha, scored visually after 3 weeks, 100% = plants have died, 0% = like control plants
  pest or weed control at 320 g/ha: 90%
SETVI [5]
  pest or weed control at 80 g/ha: 90%
SETVI [5]; dosage 320 g/ha
  pest or weed control at 320 g/ha: 90%
ECHCG [8]; Echinochloa crus-galli, 504 h, 320 g/ha
  pest or weed control at 320 g/ha: 90%
STEME; Stellaria media, 504 h, dosage 320 g/ha
  pest or weed control at 320 g/ha: 90%
ABUTH [14]; [23]
  pest or weed control at 80 g/ha: 80%
ABUTH [14]; Abutilon theophrasti, 504 h, Dosage: 320 g/ha, scored visually after 3 weeks, 100% = plants have died, 0% = like control plants
  pest or weed control at 320 g/ha: 90%
ABUTH [15]; [24]
  pest or weed control at 20 g/ha: 80%
ABUTH [15]; Abutilon theophrasti, 504 h, dosage 80 g/ha
  pest or weed control at 80 g/ha: 100%
DIGSA [18]; [26]
  pest or weed control at 80 g/ha: 90%
DIGSA [18]; Digitaria sanguinalis, 504 h, dosage 320 g/ha
  pest or weed control at 320 g/ha: 90%
